This is an account of results in paper PMC8373063 (2021).

What all share (assay): fluorescence polarization
A general note: Polarisation of emitted light reports the rotation of a fluorescent probe.

Experiment [1] deals with RNA Seq8 (RNA, single strand) UGAAGGAAGUU
Particulars: 100 mM NaCl; 20 mM HEPES, 25 °C; 0.5 μM SMN-C2.

For experiment [2], the system named is RNA Seq12 (RNA, single strand) UGAAAGAAGGU
Particulars: 100 mM NaCl; 20 mM HEPES, 25 °C; 0.5 μM SMN-C2.

Experiment [3] concerns RNA Seq13 (RNA, single strand) UGAAGAAAGGU
Particulars: 100 mM NaCl; 20 mM HEPES, 25 °C; 0.5 μM SMN-C2.

The subject of experiment [4] is RNA Seq14 (RNA, single strand) AGAAGGUAGGU
Particulars: 100 mM NaCl; 20 mM HEPES, 25 °C; 0.5 μM SMN-C2.

Experiment [5] has as its system RNA Seq15 (RNA, single strand) UGAAGGAUGGU
Particulars: 100 mM NaCl; 20 mM HEPES, 25 °C; 0.5 μM SMN-C2.

Experiment [6] concerns RNA Seq16 (RNA, single strand) UGAAGGAAAGU
Particulars: 100 mM NaCl; 20 mM HEPES, 25 °C; 0.5 μM SMN-C2.

For experiment [7], the system named is DNA Seq17 (DNA, single strand) TGAAGGAAGAT
Particulars: 100 mM NaCl, 1 mM MgCl2; 20 mM HEPES, 25 °C; 0.5 μM SMN-C2.

Experiment [8] concerns DNA S26 (DNA, single strand) TGAAGGAAGG
Particulars: 100 mM NaCl, 1 mM MgCl2; 20 mM HEPES, 25 °C; 0.5 μM SMN-C2.

Experiment [9] concerns DNA S27 (DNA, single strand) AGAAGGAAGG
Particulars: 100 mM NaCl, 1 mM MgCl2; 20 mM HEPES, 25 °C; 0.5 μM SMN-C2.

For experiment [10], the system named is DNA S1 (DNA, single strand) AAAAGAAGGAAGGTGCTC
Particulars: 100 mM NaCl, 1 mM MgCl2; 20 mM HEPES, 25 °C; 0.5 μM SMN-C2.

For experiment [11], the system named is DNA S18 (DNA, single strand) AAAAGGAGGAAGGTGCTC
Particulars: 100 mM NaCl, 1 mM MgCl2; 20 mM HEPES, 25 °C; 0.5 μM SMN-C2.

Experiment [12] relates to DNA S19 (DNA, single strand) AAAAGAGGGAAGGTGCTC
Particulars: 100 mM NaCl, 1 mM MgCl2; 20 mM HEPES, 25 °C; 0.5 μM SMN-C2.

Experiment [13] relates to S2 (DNA, single strand) AAAAGAAGGAAGGAGCAC
Particulars: 100 mM NaCl, 1 mM MgCl2; 20 mM HEPES, 25 °C, 0.5 μM compound.

The test system of experiment [14] is S4 (DNA, single strand) AAAAAGAAGAAGGTGCTC
Particulars: 100 mM NaCl, 1 mM MgCl2; 20 mM HEPES, 25 °C, 0.5 μM compound.

Experiment [15] has as its system S5 (DNA, single strand) AAAAGAAUGAAGGTGCTC
Particulars: 100 mM NaCl, 1 mM MgCl2; 20 mM HEPES, 25 °C, 0.5 μM compound.

In experiment [16] the test system is S14 (DNA, single strand) AAAAGAAGGATGGTGCTC
Particulars: 100 mM NaCl, 1 mM MgCl2; 20 mM HEPES, 25 °C, 0.5 μM compound.

Experiment [17] concerns S15 (DNA, single strand) AAAAGAAGGAATGTGCTC
Particulars: 100 mM NaCl, 1 mM MgCl2; 20 mM HEPES, 25 °C, 0.5 μM compound.

The subject of experiment [18] is S21 (DNA, single strand) AAAAAAAGGAAGGTGCTC
Particulars: 100 mM NaCl, 1 mM MgCl2; 20 mM HEPES, 25 °C, 0.5 μM compound.

The subject of experiment [19] is S23 (DNA, single strand) AAAAGAAGAAAGGTGCTC
Particulars: 100 mM NaCl, 1 mM MgCl2; 20 mM HEPES, 25 °C, 0.5 μM compound.

Experiment [20] has as its system DNA Seq20 (DNA, hairpin) TGAAGGAAGGTTTCGACCTTCCTTCA
Particulars: 100 mM NaCl, 1 mM MgCl2; 20 mM HEPES, 25 °C, 0.5 μM compound.

The test system of experiment [21] is RNA Seq20 (RNA, hairpin) UGAAGGAAGGUUUCGACCUUCCUUCA
Particulars: 100 mM NaCl; 20 mM HEPES, 25 °C, 0.5 μM compound.

The test system of experiment [22] is RNA Seq21 (RNA, hairpin) GCGCCGACUGAAGGAAGGAGUCGGCGC
Particulars: 100 mM NaCl; 20 mM HEPES, 25 °C, 0.5 μM compound.

Experiment [23] deals with DNA Seq22 (DNA, other) GTGCCAGTTCGCTGGCACTGAAGGAAGGT
Particulars: 100 mM NaCl, 1 mM MgCl2; 20 mM HEPES, 25 °C, 0.5 μM compound.

Experiment [24] relates to DNA Seq23 (DNA, mismatch bulge abasic) GCCAGGCGCACTTTCGAGTGCGCGAAGGAAGGCTGGC
Particulars: 100 mM NaCl, 1 mM MgCl2; 20 mM HEPES, 25 °C, 0.5 μM compound.

For `CCN1CCN(c2ccc3cc(-c4cn5cc(C)nc(C)c5n4)c(=O)oc3c2)C[C@@H]1C`, the Kd was over 100 µM in experiment [1]; over 100 µM in experiment [2]; over 100 µM in [3]; 9.9 ± 0.8 µM in [4]; 9.4 ± 0.5 µM in experiment [5]; 77.0 ± 26.0 µM in [6]. The Kd in experiment [7] is 56.4 ± 10.4 µM; in experiment [8], 6.2 ± 1.0 µM; in experiment [9] it was 11.6 ± 1.7 µM; in [10], 15.3 ± 0.6 µM; in experiment [11], over 50 µM; in experiment [12], 21.0 ± 1.1 µM. The Kd in experiment [13] is reported as 20.2 ± 1.7 µM; in experiment [14] it was > > 50 µM; in experiment [15] it was 42.3 ± 4.2 µM; in [16], 19.5 ± 2.3 µM; in experiment [17], 31.4 ± 4 µM; in [18] it was > > 50 µM. The dissociation constant Kd in experiment [19] was > > 50 µM; in experiment [20] it was 52.0 ± 25.7 µM; in experiment [21], > >100 μM; in experiment [22], 4.6 ± 0.6 µM; in experiment [23], 10.0 ± 0.5 µM; in experiment [24] it was 1.1 ± 0.2 µM.

For orientation: Kd means the constant that tells how readily two partners part at equilibrium. A low value points to a tighter complex.
